The IC50 is the point on the concentration scale where inhibition reaches its midpoint.

The target of the test is Human immunodeficiency virus type 1 protease (Human immunodeficiency virus 1, UniProt Q72874). As to the kind of experiment: Inhibitory concentration required to inhibit hydrolytic activity of recombinant HIV-1 PR (human immunodeficiency virus protease).
For `[N-]=[N+]=NC1C(N)C(OCc2ccccc2)OC(CO)C1OCc1ccccc1` (stereo not drawn), the IC50 was greater than 1 µM.
In the case of `NC1C(OCc2ccccc2)OC(CO)C(OCc2ccccc2)C1N` (stereo not drawn) it was 205 µM; in that of `NC1C(OCc2ccccc2)OC(COC(=O)Nc2ccccc2)C(OCc2ccccc2)C1N` (stereo not drawn), 28 µM.

(Values after ChEMBL document CHEMBL1131680, “Structure-based design of diaminopyranosides as a novel inhibitor core unit of HIV proteases” (Bioorg Med Chem Lett, 1999).)
